Drawing on US12673961B2 (Agios Pharmaceuticals, Inc., priority 2022, dated 2026), this text covers AC50 for 41 molecules.

Some results are limits rather than exact numbers.

In the first assay the target is T1, human PAH with the R408W mutation (Homo sapiens, UniProt P00439, R408W).
T1 construct: expressed in transfected cells
T1 sequence (P00439 1-452 R408W): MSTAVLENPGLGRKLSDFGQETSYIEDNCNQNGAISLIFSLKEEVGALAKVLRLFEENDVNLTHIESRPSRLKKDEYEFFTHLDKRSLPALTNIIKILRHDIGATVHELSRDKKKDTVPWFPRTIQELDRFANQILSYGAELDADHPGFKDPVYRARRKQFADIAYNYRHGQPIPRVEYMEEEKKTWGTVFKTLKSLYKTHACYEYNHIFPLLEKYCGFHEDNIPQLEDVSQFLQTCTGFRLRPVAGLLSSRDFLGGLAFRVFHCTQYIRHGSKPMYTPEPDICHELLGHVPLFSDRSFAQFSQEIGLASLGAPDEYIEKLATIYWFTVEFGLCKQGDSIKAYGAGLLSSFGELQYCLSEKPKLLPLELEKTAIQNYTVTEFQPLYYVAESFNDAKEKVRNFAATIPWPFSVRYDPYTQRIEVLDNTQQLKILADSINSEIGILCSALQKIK
Nature of the assay: Cell Based Phenylalanine Flux Assay.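 Also: Ten-point dose curve from 2-fold serial dilutions, run in duplicate at 0.5% DMSO final, tracer step used 20 µM sepiapterin and 800 µM labeled phenylalanine.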 The note with it: A375 cells expressing R408W PAH; 24 hrs with compound, then 20 μM sepiapterin and 800 μM 13C9,15N-Phenylalanine for 4 hours; 13C-Tyrosine in media by LC-MS; average where tested multiple times; read-out: AC50.
Regarding `O=C(c1cnn(-c2ccccn2)c1Cl)N1CCc2[nH]cnc2[C@@H]1c1cc2ccccn2n1` (single isomer, unassigned), the AC50 (commonly the concentration at which the activity in the assay is half-maximal) was over 5000 nM.
As for `FC(F)c1cccn2nc([C@H]3c4nc[nH]c4CCN3c3nnc(-c4cccnc4)o3)cc12` (single isomer, unassigned), the AC50 is over 5000 nM.
`Cn1nc(C(F)F)cc1C(=O)N1CCc2[nH]cnc2[C@@H]1c1cc2ccccn2n1` (single isomer, unassigned): the AC50 was over 5000 nM.
Consider `Cn1cc(-c2nnc(N3CCc4[nH]cnc4[C@H]3c3cc4c(C(F)(F)F)cccn4n3)o2)cn1` (single isomer, unassigned), for which the AC50 lay within 1000 to 5000 nM.
The same measure, in the same setting: the result for `Cc1c(-c2ncc(C(=O)N3CCc4[nH]cnc4[C@H]3c3cc4ccccn4n3)o2)cnn1C` (single isomer, unassigned) reads 1000 to 5000 nM; that for `Cc1n[nH]cc1-c1nnc(C(=O)N2CCc3[nH]cnc3[C@H]2c2cc3c(C)cccn3n2)o1` (single isomer, unassigned), 1000 to 5000 nM; that for `FC1(F)CC(c2nnc(N3CCc4[nH]cnc4[C@H]3c3cc4c(C(F)(F)F)cccn4n3)o2)C1` (single isomer, unassigned), 1000 to 5000 nM.
Same read-out and setting: the result for `O=C(c1nnc(C2CC(F)(F)C2)o1)N1CCc2[nH]cnc2[C@H]1c1cc2ccccn2n1` (single isomer, unassigned) reads 1000 to 5000 nM; that for `CC(C)(F)c1nnc(N2CCc3[nH]cnc3[C@H]2c2cc3c(C4CC4)cccn3n2)o1` (single isomer, unassigned), over 5000 nM.
On the same count and under the same terms, next, `Cc1nnc(N2CCc3[nH]cnc3[C@H]2c2cc3cccc(C(F)F)n3n2)o1` (single isomer, unassigned): over 5000 nM.
As for `Nc1cnc(N2CCc3[nH]cnc3[C@H]2c2cc3ccccn3n2)nc1` (single isomer, unassigned), the AC50 was over 5000 nM.
Same read-out and setting: next, `CC(C)c1cccn2nc([C@@H]3c4nc[nH]c4CCN3c3nnc(-c4ncccn4)o3)cc12` (single isomer, unassigned): 1000 to 5000 nM; `Clc1cccn2nc([C@@H]3c4nc[nH]c4CCN3c3nnc(-c4ncccn4)o3)cc12` (single isomer, unassigned): 1000 to 5000 nM.
As for `COc1cccn2nc([C@@H]3c4nc[nH]c4CCN3c3nnc(-c4ccccn4)o3)cc12` (single isomer, unassigned), the AC50 lay within 1000 to 5000 nM.
In the case of `O=C(c1nnc(-c2ccc(C(F)(F)F)cn2)o1)N1CCc2[nH]cnc2[C@H]1c1cc2ccccn2n1` (single isomer, unassigned), the AC50 lay within 1000 to 5000 nM.
Consider `O=C(c1cnc(-c2ncccn2)o1)N1CCc2[nH]cnc2[C@H]1c1cc2ccccn2n1` (single isomer, unassigned), for which the AC50 lay in the range of 1000 to 5000 nM.
On the same count and under the same terms, the result for `Cc1cccc2cc([C@@H]3c4nc[nH]c4CCN3c3nnc(C4CCC4)o3)nn12` (single isomer, unassigned) reads 1000 to 5000 nM; that for `c1ccn2nc(C3c4nc[nH]c4CCN3c3nnc(C4CCC4)o3)cc2c1` (single isomer, unassigned), 1000 to 5000 nM; that for `Cc1cccn2nc([C@@H]3c4nc[nH]c4CCN3c3cccc(F)n3)cc12` (single isomer, unassigned), 1000 to 5000 nM.
On the same count and under the same terms, the result for `FC(F)(F)c1cccn2nc([C@@H]3c4nc[nH]c4CCN3c3nnc(-c4cccnc4)o3)cc12` (single isomer, unassigned) reads 1000 to 5000 nM.
Same read-out and setting: next, `Fc1cccn2nc([C@@H]3c4nc[nH]c4CCN3c3nnc(-c4cccnn4)o3)cc12` (single isomer, unassigned): 1000 to 5000 nM; `Fc1cccnc1-c1nnc(N2CCc3[nH]cnc3[C@H]2c2cc3c(C(F)(F)F)cccn3n2)o1` (single isomer, unassigned): 1000 to 5000 nM; `c1cc(C2CC2)c2cc([C@@H]3c4nc[nH]c4CCN3c3nnc(-c4ccncn4)o3)nn2c1` (single isomer, unassigned): 1000 to 5000 nM.
Take `O=C(C1CC1)N1CCc2[nH]cnc2[C@H]1c1cc2c(F)cccn2n1` (single isomer, unassigned): the AC50 is over 5000 nM.
Still for that read-out and setting: next, `Cn1cncc1-c1nnc(C(=O)N2CCc3[nH]cnc3C2c2cc3c(C(F)(F)F)cccn3n2)o1` (single isomer, unassigned) [4S enantiomer of 2-(1-methyl-1H-imidazol-5-yl)-5-14-[4-(trif]: 1000 to 5000 nM.
On the same count and under the same terms, the result for `FC1(F)CC(c2nnc(N3CCc4[nH]cnc4C3c3cc4ccccn4n3)o2)C1` (single isomer, unassigned) [4S enantiomer of 2-(3,3-difluorocyclobutyl)-5-[4-{pyrazolo{1] reads over 5000 nM; that for `FC(F)(F)c1ccc(N2CCc3[nH]cnc3C2c2cc3cccc(C(F)(F)F)n3n2)nc1` (single isomer, unassigned) [4S enantiomer of 5-(trifluoromethyl)-2-[4-[7-(trifluoromethy], 1000 to 5000 nM.

Staying with this assay, now noted: A375 cells expressing human R408W PAH; 24 hrs compound incubation; 13C-Tyrosine by LC-MS; average where tested multiple times; read-out: AC50.
Turning to `N#Cc1ncoc1C(=O)N1CCc2[nH]cnc2[C@H]1c1cc2ccccn2n1` (single isomer, unassigned) [Example 640], the AC50 lay in the range of 500 to 1000 nM.
Still for that read-out and setting: next, `N#Cc1ncoc1C(=O)N1CCc2[nH]cnc2[C@@H]1c1cc2ccccn2n1` (single isomer, unassigned) [Example 641]: over 5000 nM; `Cn1ccc(-c2nnc(C(=O)N3CCc4[nH]cnc4[C@@H]3c3cc4c(C(F)(F)F)cccn4n3)o2)n1` (single isomer, unassigned) [Example 837]: over 5000 nM; `Cn1nc(C(F)F)nc1C(=O)N1CCc2[nH]cnc2C1c1cc2c(Cl)cccn2n1` (stereo in doubt) [Example 781, (R)-(4-(4-chloropyrazolo [1,5-a]pyridin-2-yl)-6,7-dihydro-1H-imidazo[4,5-c]pyridin-5(4H)-yl)(3-(difluoromethyl)-1-methyl-1H-1,2,4-triazol-5-yl)methanone]: 1000 to 5000 nM.
Take `Cn1cnc(-c2nnc(C(=O)N3CCc4[nH]cnc4C3c3cc4c(C(F)(F)F)cccn4n3)o2)c1` (stereo in doubt) [Example 934, (S)-(5-(1-methyl-1H-imidazol-4-yl)-1,3,4-oxadiazol-2-yl)(4-(4-(trifluoromethyl)pyrazolo[1,5-a]pyridin-2-yl)-6,7-dihydro-1H-imidazo [4,5-c]pyridin-5(4H)-yl)methanone]: the AC50 lay in the range of 500 to 1000 nM.
As to `CCOc1cccc2cc(C3c4nc[nH]c4CCN3C(=O)c3oc(C(C)(C)O)nc3C(F)F)nn12` (stereo in doubt) [Example 1245, (S)-(4-(difluoromethyl)-2-(2-hydroxypropan-2-yl)oxazol-5-yl)(4-(7-ethoxypyrazolo [1,5-a]pyridin-2-yl)-6,7-dihydro-1H-imidazo[4,5-c]pyridin-5(4H)-yl)methanone], the AC50 lay in the range of 500 to 1000 nM.
Still for that read-out and setting: next, `CC(F)(F)c1ncc(C(=O)N2CCc3[nH]cnc3[C@@H]2c2cc3ccccn3n2)s1` [Example 613, (R)-(2-(1,1-difluoroethyl)thiazol-5-yl)(4-(pyrazolo [1,5-a]pyridin-2-yl)-6,7-dihydro-1H-imidazo[4,5-c]pyridin-5(4H)-yl)methanone]: 1000 to 5000 nM; `O=C(c1oc(-c2ccccn2)nc1C1CC1)N1CCc2[nH]cnc2[C@H]1c1cc2ccccn2n1` [Example 622, (S)-(4-cyclopropyl-2-(pyridin-2-yl)oxazol-5-yl)(4-(pyrazolo[1,5-a]pyridin-2-yl)-6,7-dihydro-1H-imidazo[4,5-c]pyridin-5(4H)-yl)methanone]: 500 to 1000 nM.
The same measure, in the same setting: the result for `O=C(CC1CC(F)C1)N1CCc2[nH]cnc2[C@H]1c1cc2ccccn2n1` (stereo partly drawn) [Example 636, (S)-2-(3-fluorocyclobutyl)-1-(4-(pyrazolo[1,5-a]pyridin-2-yl)-6,7-dihydro-1H-imidazo [4,5-c]pyridin-5(4H)-yl)ethenone] reads under 500 nM; that for `O=C(CC1CC(F)C1)N1CCc2[nH]cnc2[C@@H]1c1cc2ccccn2n1` (stereo partly drawn) [Example 637, (R)-2-(3-fluorocyclobutyl)-1-(4-(pyrazolo[1,5-a]pyridin-2-yl)-6,7-dihydro-1H-imidazo [4,5-c]pyridin-5(4H)-yl)ethanone], 1000 to 5000 nM.

Still in this assay, the particulars now being: A375 cells expressing human R408W PAH; 24 hrs with compound, then sepiapterin and 13C9,15N-Phenylalanine for 4 hours; 13C-Tyrosine by LC-MS; average where tested multiple times; read-out: AC50.
Consider `Fc1cccc(F)c1-c1nnc(N2CCc3[nH]cnc3[C@H]2c2cc3ccccn3n2)o1` (single isomer, unassigned) [Example 1843], for which the AC50 was under 500 nM.
On to `O=C(c1cnc(-c2ccccn2)o1)N1CCc2[nH]cnc2C1c1cc2c(C(F)(F)F)cccn2n1` (stereo in doubt) [Example 2036, (S)-(2-(pyridin-2-yl)oxazol-5-yl)(4-(4-(trifluoromethyl)pyrazolo [1,5-a]pyridin-2-yl)-1,4,6,7-tetrahydro-5H-imidazo[4,5-c]pyridin-5-yl)methanone], for which the AC50 was under 500 nM.
For `O=C(c1cnc(C2CC2)o1)N1CCc2[nH]cnc2C1c1cc2c(F)cccn2n1` (stereo in doubt) [Example 2098, (S)-(2-cyclopropyloxazol-5-yl)(4-(4-fluoropyrazolo[1,5-a]pyridin-2-yl)-1,4,6,7-tetrahydro-5H-imidazo[4,5-c]pyridin-5-yl)methanone], the AC50 is under 500 nM.
As for `CC(C)c1nnc(N2CCc3[nH]cnc3C2c2cc3c(F)cccn3n2)o1` (stereo in doubt) [Example 2323, (S)-2-(4-(4-fluoropyrazolo [1,5-a]pyridin-2-yl)-1,4,6,7-tetrahydro-5H-imidazo [4,5-c]pyridin-5-yl)-5-isopropyl-1,3,4-oxadiazole], the AC50 lay in the range of 500 to 1000 nM.
